Values of other authors, collected in patent US9675546B2, “Method of treating atrophic vaginitis” (priority 2006, dated 2017).
Read-outs that look alike come from different tables or passages of the source.

What was measured:
breast cancer risk = settings: progestogen combined with estrogens in HRT users
[1] = not given; remark: listed apart in the source
[2] = not given; remark: listed apart in the source
[3] = single oral dose of 20 mg tamoxifen

| SMILES | Risk of breast cancer (RR) (breast cancer risk) | Serum concentration (25 mg progesterone vaginal suppository) [ng/mL] | Serum concentration (50 mg progesterone vaginal suppository) [ng/mL] | Quality of life/menopausal symptoms: women with significant improvement in symptoms ([1]; MP-containing HRT compared with MPA-containing regimen) | Cardiovascular Events ([1]; in vivo) | Glucose/Insulin ([1]; in vivo) | Liver function ([1]; in vivo) | Sleep and Mood ([1]; in vivo) | Lipid Profile ([1]; in vivo) | Time to steady state concentrations after initiation of therapy ([2]; oral) | Average steady state plasma concentration ([2]; oral, once daily for 3 months) [ng/mL] | Average peak plasma concentration [2, 3] [ng/mL] | Time of peak plasma concentration after dosing [2, 3] |
| --- | --- | --- | --- | --- | --- | --- | --- | --- | --- | --- | --- | --- | --- |
| CC(=O)[C@H]1CC[C@H]2[C@@H]3CCC4=CC(=O)CC[C@]4(C)[C@H]3CC[C@]12C [progesterone, pregn-4-ene-3, 20-dione] | 0.9 | 7.27 | 8.84 | symptoms in 80%. | MP: has antihypertensive action and can be safely used to treat | MP: augments the pancreatic response to glucose and increases | MP: does not effect liver enzymes or cause livie related side | MP: improves the quality of sleep and has sedative properties. |  |  |  |  |  |
| CC(=O)O[C@]1(C(C)=O)CC[C@H]2[C@@H]3C[C@H](C)C4=CC(=O)CC[C@]4(C)[C@H]3CC[C@@]21C [MPA, Medroxyprogesterone Acetate] |  |  |  |  | MPA: may cause fluid retention and edema, increases incidence | MPA: has been found to cause deterioration of glucose tolerance | MPA: contraindicted in patients with liver dysfunction. | MPA: can cause insomnia, mental depression, and anxiety. | MPA: adversely effects lipid profile and negates the beneficial |  |  |  |  |
| CC/C(=C(\c1ccccc1)c1ccc(OCCN(C)C)cc1)c1ccccc1 [tamoxifen, 1-(p-dimethylamino-ethoxphenyl)-2-ethyl-1,2-diphenylethylene] |  |  |  |  |  |  |  |  |  | about 4 weeks | 122 | 40 | approximately 5 hours |
